# Source: patent US6706747B2, “Conformationally rigid bicyclic and adamantane derivatives useful as α2-adrenergic blocking agents” (Allergan, Inc., priority 1994, dated 2004)
# Target: T1, HT-29(α2A) (Homo sapiens, UniProt P08913)
# T1 construct: HT-29 and chinese hamster ovary (CHO) cells expressing the human α2A (CHO—C10) receptor; endogenous in cells; host or cells: HT-29
# T1 sequence (P08913 1-465): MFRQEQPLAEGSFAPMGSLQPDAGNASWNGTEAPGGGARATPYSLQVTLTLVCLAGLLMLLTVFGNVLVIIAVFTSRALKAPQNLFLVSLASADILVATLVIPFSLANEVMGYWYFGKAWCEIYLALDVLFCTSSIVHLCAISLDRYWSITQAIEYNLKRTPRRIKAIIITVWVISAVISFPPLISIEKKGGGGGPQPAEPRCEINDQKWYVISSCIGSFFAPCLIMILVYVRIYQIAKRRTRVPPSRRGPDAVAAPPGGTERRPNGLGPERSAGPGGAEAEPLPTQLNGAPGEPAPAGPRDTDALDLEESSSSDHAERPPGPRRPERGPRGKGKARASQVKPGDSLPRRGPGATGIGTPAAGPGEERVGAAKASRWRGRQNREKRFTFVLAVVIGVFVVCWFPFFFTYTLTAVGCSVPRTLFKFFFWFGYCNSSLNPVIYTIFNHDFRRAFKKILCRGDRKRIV
# Test: Radioligand binding, [3H]rauwolscine, HT-29 cell membranes
# Conditions: values marked *: HT-29 cells, 22° C., 30 minutes
# Protocol: Cell preparation: HT-29 and chinese hamster ovary (CHO) cells expressing the human α2A (CHO—C10) receptor and CHO cells (CHO—RNG) expressing the rat α2B adrenoceptor were grown to near confluency in Dulbecco's modified Eagle's medium supplemented with 10% fetal bovine serum using standard cell culture methods. Cells were harvested by scraping and placed into cold buffer of the following composition: 50 mM Tris-HCl, 5 mM EDTA, pH 7.4). Cells were then homogenized with a Polytron homogenizer for 2×10 secs at setting # 7, arid centrifuged for 20 minutes at 49,000×g. The pellet fraction was washed (resuspended in Tris-HCl, pH 8 buffer and centrifuged for 15-20 minutes at 49,000×g) 2 times and stored at −100° C. until binding assay.
# Binding studies: The radioligands [^3H]rauwolscine (specific activity 80 Ci/mmol) and [^3H]prazosin (specific activity 76 Ci/mmol) were obtained from New England Nuclear, Boston, Mass. Frozen membrane pellet was resuspended in 25 mM glycine/glycine, pH 7.4 and incubated with radioligand under the following conditions: CHO—C10, CHO—RNG, HT-29-[^3H]rauwolscine, 22° C., 30 minutes; RKC-[^3H]rauwolscine, 0° C., 120 minutes; and, HCC-[^3H]prazosin, 22° C., 30 minutes in a final volume of 500 μl. At the end of the incubation period, the samples were filtered through glass fiber filters (Whatman GF/B) in a 96 well cell harvester and rapidly washed four times with 4 ml of ice-cold 50 mM, Tris-HCl buffer. The filters were then oven dried and transferred to scintillation vials containing 5 ml of Beckman's Ready Protein® scintillation cocktail for counting. Specific binding defined by 10 μM phentolamine for competition studies were as follows: 0.3 nM [^3H]rauwolscine—CHO—C10 99%; 0.4 nM[^3H]rauwolscine —CHO—RNG 99%; 0.7;nM [^3H]rauwolscine—HT-29 90%; 1 nm [^3]rauwolscine—RKC 92%, and 0.3 nM [^3H]prazosin—HCC 87%. Protein concentrations were determined with a protein assay kit from Bio Rad. Binding isotherms, equilibrium dissociation and affinity constants were analyzed and determined by the non-linear least squares curve fitting programs AccuFit Competition/Saturation by Beckman.
# Binding studies: The radioligands [^3H]rauwolscine (specific activity 80 Ci/mmol), [^3H]prazosin (specific activity 76 Ci/mmol) and [^3H]brimonidine (UK-14,304; specific activity 63 Ci/mmol) were obtained from New England Nuclear, Boston, Mass. Frozen membrane pellet was resuspended either 50 mM tris, 2 mM EGTA, 1 mM MgCl2, pH7.5 (RbKC, RbICB-[^3H]brimonidine); 50 mM tris, 0.5 mM EDTA, 5 mM NaCl, pH 7.7 (RbICB-[^3H]rauwolscine); 25 mM glycine/glycine, pH 7.4 (RtKC, CHO—C10, CH—RNG, HT-29, HCC) or 50 mM tris, 0.1 mM MnCl2, pH7.7 (RtCC). Membrane protein homogenate (75-200 μg) was incubated with radioligand under the following conditions: RbKC and RbICB-[^3H]rauwolscine, 22° C., 45 minutes; RtCC and RbICB-[^3H]brimondine, 22° C., 90 minutes; CHO—C10, CHO—RNG and HT-29-[^3H]rauwolscine, 22° C., 30 minutes; HCC—[^3H]prazosin, 22° C., 30 minutes; and, in a final volume of 250 or 500 μl. At the end of the incubation period, the samples were filtered through glass fiber filters (Whatman GF/B) in a 24 or 96 well cell harvester and rapidly washed four times with 4 mls of iced-cold 50 mM Tris-HCl buffer. The filters were then oven dried and transferred to scintillation vials containing 10 mls of, Beckman's Ready Protein® scintillation cocktail for counting. […] Protein concentrations were determined with a protein assay kit from Bio Rad. […]
row,SMILES,Ki [nM]
1,CCCCC1C2CCC(C2)C1NC1=NCCO1 (centres unmarked),29
2,CCCCC1C2CCC(C2)C1NC1=NCCS1 (centres unmarked),58

# Further compounds by falling Ki, results first:
row,Ki [nM],SMILES
1,288,C1CCC(C2C3CCC(C3)C2NC2=NCCN2)CC1 (centres unmarked)
2,150,CCCCNC1=NCCO1
3,43,CC(C)C1C2CCC(C2)C1NC1=NCCO1 (centres unmarked)
